Data: patent US20230312578A1, “6H-INDOLO[2,3-B]QUINOXALINE DERIVATIVES USEFUL IN THERAPY” (Vironova Medical AB, priority 2020, published 2023)
Where two headings read alike, the source gives them in different places.

Columns and labels:
Assay type in all cases: cell-based
[1] = tested on: CCRF-CEM; experiment: Human tumor cell line growth assay (SRB); settings: Leukemia, 48 h; for CC50: read-out: LC50 (the source's name)
[2] = tested on: HL-60(TB); experiment: Human tumor cell line growth assay (SRB); settings: Leukemia, 48 h; for CC50: read-out: LC50 (the source's name)
[3] = tested on: K-562; experiment: Human tumor cell line growth assay (SRB); settings: K562, Leukemia, K-562, 48 h; for CC50: read-out: LC50 (the source's name)
[4] = tested on: RPMI-8226; experiment: Human tumor cell line growth assay (SRB); settings: Homo sapiens; Leukemia, RPMI-8226, 48 h
[5] = Human tumor cell line growth assay (SRB); settings: human, A549/ATCC cells (NSCLC), read-out: LC50
[6] = tested on: A549/ATCC; experiment: Human tumor cell line growth assay (SRB); settings: Homo sapiens, NSCLC, 48 h
[7] = Human tumor cell line growth assay (SRB); settings: human, HOP-62 cells (NSCLC), HOP-62, 48 h, read-out: LC50
[8] = tested on: HOP-62; experiment: Human tumor cell line growth assay (SRB); settings: Homo sapiens; NSCLC, HOP-62, 48 h
[9] = Human tumor cell line growth assay (SRB); settings: human, HOP-92 cells (NSCLC), HOP-92, 48 h
[10] = tested on: HOP-92; experiment: Human tumor cell line growth assay (SRB); settings: Homo sapiens; NSCLC, HOP-92, 48 h
[11] = Human tumor cell line growth assay (SRB); settings: human, NCI-H23 cells (NSCLC), NCI-H23, 48 h, read-out: LC50
[12] = tested on: NCI-H23; experiment: Human tumor cell line growth assay (SRB); settings: Homo sapiens; NSCLC, NCI-H23, 48 h
[13] = Human tumor cell line growth assay (SRB); settings: human, NCI-H522 cells (NSCLC), NCI-H522, 48 h
[14] = tested on: NCI-H522; experiment: Human tumor cell line growth assay (SRB); settings: Homo sapiens; NSCLC, NCI-H522, 48 h
[15] = tested on: HCC-2998; experiment: Human tumor cell line growth assay (SRB); settings: Homo sapiens; Colon, HCC-2998, 48 h
[16] = Human tumor cell line growth assay (SRB); settings: human, SW-620 cells (colon), SW-620, 48 h
[17] = tested on: SW-620; experiment: Human tumor cell line growth assay (SRB); settings: Homo sapiens; Colon, SW-620, 48 h
[18] = Human tumor cell line growth assay (SRB); settings: human, SF-268 cells (CNS), SF-268, 48 h
[19] = tested on: SF-268; experiment: Human tumor cell line growth assay (SRB); settings: Homo sapiens; CNS, SF-268, 48 h
[20] = Human tumor cell line growth assay (SRB); settings: human, U251 cells (CNS), U251, 48 h, read-out: LC50
[21] = tested on: U251; experiment: Human tumor cell line growth assay (SRB); settings: Homo sapiens, U-251; CNS, U251, 48 h
[22] = Human tumor cell line growth assay (SRB); settings: human, MALME-3M cells (melanoma), read-out: LC50
[23] = Human tumor cell line growth assay (SRB); settings: human, SK-MEL-28 cells (melanoma), SK-MEL-28, 48 h, read-out: LC50
[24] = tested on: SK-MEL-28; experiment: Human tumor cell line growth assay (SRB); settings: Homo sapiens; Melanoma, SK-MEL-28, 48 h
[25] = Human tumor cell line growth assay (SRB); settings: human, UACC-257 cells (melanoma), UACC-257, 48 h, read-out: LC50
[26] = tested on: UACC-257; experiment: Human tumor cell line growth assay (SRB); settings: Homo sapiens; Melanoma, UACC-257, 48 h
[27] = Human tumor cell line growth assay (SRB); settings: human, IGR-OV1 cells (ovarian), IGR-OV1, 48 h, read-out: LC50
[28] = tested on: IGR-OV1; experiment: Human tumor cell line growth assay (SRB); settings: Homo sapiens, IGROV-1; Ovarian, IGR-OV1, 48 h
[29] = Human tumor cell line growth assay (SRB); settings: human, OVCAR-5 cells (ovarian), OVCAR-5, 48 h, read-out: LC50
[30] = tested on: OVCAR-5; experiment: Human tumor cell line growth assay (SRB); settings: Homo sapiens; Ovarian, OVCAR-5, 48 h
[31] = tested on: NCI/ADR-RES; experiment: Human tumor cell line growth assay (SRB); settings: Ovarian, 48 h
[32] = tested on: SK-OV-3; experiment: Human tumor cell line growth assay (SRB); settings: Ovarian, SK-OV-3, 48 h; for CC50: read-out: LC50 (the source's name)
[33] = tested on: 786-0; experiment: Human tumor cell line growth assay (SRB); settings: Renal, 786-0, 48 h
[34] = tested on: A498; experiment: Human tumor cell line growth assay (SRB); settings: Renal, A498, 48 h; for CC50: read-out: LC50 (the source's name)
[35] = tested on: TK-10; experiment: Human tumor cell line growth assay (SRB); settings: Renal, TK-10, 48 h; for CC50: read-out: LC50 (the source's name)
[36] = tested on: DU-145; experiment: Human tumor cell line growth assay (SRB); settings: Prostate, DU-145, 48 h; for CC50: read-out: LC50 (the source's name)
[37] = tested on: HS 578T; experiment: Human tumor cell line growth assay (SRB); settings: Breast, 48 h; for CC50: read-out: LC50 (the source's name)

COc1ccc2c(c1)c1nc3cc(C)c(C)cc3nc1n2CCN(C)C [JBA-094, 2-(9-methoxy-2,3-dimethyl-6H-indolo[2,3-b]quinoxalin-6-yl)-N,N-dimethylethanamine]
GI50 [1]: 0.795 µM
CC50 [1]: > 100 µM
GI50 [2]: 1.18 µM
CC50 [2]: > 100 µM
GI50 [3]: 0.444 µM
CC50 [3]: > 100 µM
GI50 [4]: 0.64 µM
CC50 at 48 h [5]: 7.97 µM
GI50 [6]: 0.482 µM
CC50 at 48 h [7]: > 100 µM
GI50 [8]: 1.19 µM
LC50 at 48 h [9]: 6.08 µM
GI50 [10]: 0.238 µM
CC50 at 48 h [11]: 8.2 µM
GI50 [12]: 0.973 µM
LC50 at 48 h [13]: > 100 µM
GI50 [14]: 0.515 µM
GI50 [15]: 1.08 µM
LC50 (50% lethal concentration) at 48 h [16]: 5.53 µM
GI50 [17]: 0.454 µM
LC50 (50% lethal concentration) at 48 h [18]: 8.23 µM
GI50 [19]: 1.33 µM
CC50 at 48 h [20]: 6.09 µM
GI50 [21]: 0.526 µM
CC50 at 48 h [22]: 5.77 µM
CC50 at 48 h [23]: 6.76 µM
GI50 [24]: 1.79 µM
CC50 at 48 h [25]: 7.97 µM
GI50 [26]: 1.5 µM
CC50 at 48 h [27]: 5.41 µM
GI50 [28]: 0.396 µM
CC50 at 48 h [29]: 5.28 µM
GI50 [30]: 1.12 µM
GI50 [31]: 0.588 µM
GI50 [32]: 1.5 µM
CC50 [32]: 7.17 µM
GI50 [33]: 1.04 µM
LC50 [33]: 6.52 µM
GI50 [34]: 1.48 µM
CC50 [34]: 5.56 µM
GI50 [35]: 1.96 µM
CC50 [35]: 6.92 µM
GI50 [36]: 1.01 µM
CC50 [36]: 5.32 µM
GI50 [37]: 1.93 µM
CC50 [37]: 78.7 µM

Cc1cc2nc3c4ccccc4n(CCN(C)C)c3nc2cc1C [B220, 2-(2,3-dimethyl-6H-indolo [2,3-b]quinoxalin-6-yl)-N,N-dimethylethanamine, reference compound]
GI50 [1]: 1.99 µM
CC50 [1]: > 100 µM
GI50 [2]: 1.99 µM
CC50 [2]: > 100 µM
GI50 [3]: 1.99 µM
CC50 [3]: > 100 µM
CC50 at 48 h [5]: > 100 µM
GI50 [6]: 1.28 µM
CC50 at 48 h [7]: > 100 µM
GI50 [8]: 1.11 µM
LC50 at 48 h [9]: > 100 µM
GI50 [10]: 1.36 µM
CC50 at 48 h [11]: 45.6 µM
GI50 [12]: 1.87 µM
LC50 at 48 h [13]: > 100 µM
GI50 [14]: 0.673 µM
GI50 [15]: 1.47 µM
LC50 (50% lethal concentration) at 48 h [16]: 35 µM
GI50 [17]: 0.54 µM
LC50 (50% lethal concentration) at 48 h [18]: 28 µM
GI50 [19]: 1.45 µM
CC50 at 48 h [20]: 44.6 µM
GI50 [21]: 2.01 µM
CC50 at 48 h [22]: 53.3 µM
CC50 at 48 h [23]: 9.45 µM
GI50 [24]: 2.09 µM
CC50 at 48 h [25]: 5.99 µM
GI50 [26]: 1.94 µM
CC50 at 48 h [27]: 72.4 µM
GI50 [28]: 1.28 µM
CC50 at 48 h [29]: 33.4 µM
GI50 [30]: 2.1 µM
GI50 [31]: 1.39 µM
CC50 ([31]; read-out: LC50 (the source's name)): 90.2 µM
GI50 [32]: 3.1 µM
CC50 [32]: > 100 µM
GI50 [33]: 1.97 µM
LC50 [33]: 62 µM
GI50 [34]: 1.43 µM
CC50 [34]: 5.74 µM
GI50 [35]: 2.97 µM
CC50 [35]: 71.4 µM
GI50 [36]: 2.07 µM
CC50 [36]: 55.6 µM
GI50 [37]: 1.57 µM
CC50 [37]: 67.4 µM
